From patent US20250223268A1, “4-Methylsulfonylbenzamide Compound, Preparation Method, Herbicidal Composition And Use” (Jiangsu Flag Chemical Industry Co., Ltd., priority 2022, published 2025)

What was measured:
Test in all cases: Greenhouse herbicidal activity assay, post-emergence
Format in all cases: in vivo
Conditions in all cases: Post-emergence test, rate 150 g a.i./hm^2; grade by fresh weight inhibition rate
[1] = system: Eclipta prostrata
Method in brief: (§1)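 Letter grades (A: ≥80% to 100%; C: ≥40% to <60%; E: <20%) express fresh weight inhibition recorded 14-21 days post-spray. Weeds were treated on the leaves once they reached 3-6 leaves in chamber-grown pots, allowed to dry naturally, then kept in the chamber.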

[2] = system: Cyperus iria
Method in brief: as §1

[3] = system: Digitaria sanguinalis
Method in brief: as §1

[4] = system: Leptochloa chinensis
Method in brief: as §1

[5] = system: Echinochloa crusgalli
Method in brief: as §1

Structure (SMILES)	Control efficacy grade, Eclipta prostrata [1]	Control efficacy grade, Cyperus iria [2]	Control efficacy grade, Digitaria sanguinalis [3]	Control efficacy grade, Leptochloa chinensis [4]	Control efficacy grade, Echinochloa crusgalli [5]
CS(=O)(=O)c1ccc(C(=O)Nc2nnco2)c(Cl)c1[S+]([O-])CC(F)F (racemic) [Compound 3-329]	A (Fresh weight inhibition rate≥80% to 100%)	A (Fresh weight inhibition rate≥80% to 100%)	A (Fresh weight inhibition rate≥80% to 100%)	A (Fresh weight inhibition rate≥80% to 100%)	A (Fresh weight inhibition rate≥80% to 100%)
Cc1nnc(NC(=O)c2ccc(S(C)(=O)=O)c([S+]([O-])CC#N)c2Cl)o1 (racemic) [Compound 3-193]	A (Fresh weight inhibition rate≥80% to 100%)	A (Fresh weight inhibition rate≥80% to 100%)	B (Fresh weight inhibition rate≥260% to <80%)	A (Fresh weight inhibition rate≥80% to 100%)	A (Fresh weight inhibition rate≥80% to 100%)
Cc1nnc(NC(=O)c2ccc(S(C)(=O)=O)c([S+]([O-])C3CCC3)c2Cl)o1 (racemic) [Compound 3-83]	A (Fresh weight inhibition rate≥80% to 100%)	A (Fresh weight inhibition rate≥80% to 100%)	A (Fresh weight inhibition rate≥80% to 100%)	A (Fresh weight inhibition rate≥80% to 100%)	A (Fresh weight inhibition rate≥80% to 100%)
CCc1nnc(NC(=O)c2ccc(S(C)(=O)=O)c([S+]([O-])CC(F)(F)F)c2Cl)o1 (racemic) [Compound 3-440]	A (Fresh weight inhibition rate≥80% to 100%)	A (Fresh weight inhibition rate≥80% to 100%)	A (Fresh weight inhibition rate≥80% to 100%)	A (Fresh weight inhibition rate≥80% to 100%)	A (Fresh weight inhibition rate≥80% to 100%)
Cc1nnc(NC(=O)c2ccc(S(C)(=O)=O)c(SCCC(C)C)c2Cl)o1 [Compound 3-52]	A (Fresh weight inhibition rate≥80% to 100%)	A (Fresh weight inhibition rate≥80% to 100%)	B (Fresh weight inhibition rate≥260% to <80%)	A (Fresh weight inhibition rate≥80% to 100%)	B (Fresh weight inhibition rate≥260% to <80%)
Cc1nnc(NC(=O)c2ccc(S(C)(=O)=O)c(SC3CCCC3)c2Cl)o1 [Compound 3-87]	A (Fresh weight inhibition rate≥80% to 100%)	A (Fresh weight inhibition rate≥80% to 100%)	A (Fresh weight inhibition rate≥80% to 100%)	A (Fresh weight inhibition rate≥80% to 100%)	A (Fresh weight inhibition rate≥80% to 100%)
CS(=O)(=O)c1ccc(C(=O)Nc2nnc(C3CC3)o2)c(Cl)c1[S+]([O-])C1CCC1 (racemic) [Compound 3-657]	A (Fresh weight inhibition rate≥80% to 100%)	A (Fresh weight inhibition rate≥80% to 100%)	A (Fresh weight inhibition rate≥80% to 100%)	A (Fresh weight inhibition rate≥80% to 100%)	B (Fresh weight inhibition rate≥260% to <80%)
CC(C)c1nnc(NC(=O)c2ccc(S(C)(=O)=O)c([S+]([O-])C3CCC3)c2Cl)o1 (racemic) [Compound 3-541]	A (Fresh weight inhibition rate≥80% to 100%)	A (Fresh weight inhibition rate≥80% to 100%)	B (Fresh weight inhibition rate≥260% to <80%)	A (Fresh weight inhibition rate≥80% to 100%)	C (Fresh weight inhibition rate≥40% to <60%)
